This is an account of results in ChEMBL document CHEMBL1949644, “Synthesis and SAR optimization of quinazolin-4(3H)-ones as poly(ADP-ribose)polymerase-1 inhibitors” (Eur J Med Chem, 2012).

Molecules are shown by their SMILES. Where only a bound is given, the exact number is not on record here.

The target of test [1] is T1, Poly [ADP-ribose] polymerase 1 (Homo sapiens, UniProt P09874). Kind of test: Inhibition of PARP1 using TACS-Sapphire substrate for 30 mins by colorimetry.
Test [2] relates to MEF. Kind of test: Antiproliferative activity against wild type MEF cells assessed as cell viability after 72 hrs by MTT assay. Format: cell-based. The conditions noted are these: Mus musculus. A general note: Tetrazolium dyes change colour on reduction, which living cells bring about.
In test [3] the test system is MEF. Kind of test: Antiproliferative activity against MEF cells harboring Brca1 deletion mutant at exon 11 assessed as cell viability after 72 hrs by MTT assay. Format: functional, cell-based. To be noted: Mus musculus.
For test [4], the system named is MEF. Kind of test: Ratio of IC50 for wild type MEF cells to MEF cells harboring Brca1 deletion mutant at exon 11. Format: functional, Mus musculus.
For test [5], the target named is T1, Poly [ADP-ribose] polymerase 1. Kind of test: Inhibition of PARP1 at 25 uM using TACS-Sapphire substrate for 30 mins by colorimetry.
Test [6] shares this target. Kind of test: Ratio of quinazoline-4(3H)-one IC50 to compound IC50 for PARP1.

T1 sequence (P09874 whole entry): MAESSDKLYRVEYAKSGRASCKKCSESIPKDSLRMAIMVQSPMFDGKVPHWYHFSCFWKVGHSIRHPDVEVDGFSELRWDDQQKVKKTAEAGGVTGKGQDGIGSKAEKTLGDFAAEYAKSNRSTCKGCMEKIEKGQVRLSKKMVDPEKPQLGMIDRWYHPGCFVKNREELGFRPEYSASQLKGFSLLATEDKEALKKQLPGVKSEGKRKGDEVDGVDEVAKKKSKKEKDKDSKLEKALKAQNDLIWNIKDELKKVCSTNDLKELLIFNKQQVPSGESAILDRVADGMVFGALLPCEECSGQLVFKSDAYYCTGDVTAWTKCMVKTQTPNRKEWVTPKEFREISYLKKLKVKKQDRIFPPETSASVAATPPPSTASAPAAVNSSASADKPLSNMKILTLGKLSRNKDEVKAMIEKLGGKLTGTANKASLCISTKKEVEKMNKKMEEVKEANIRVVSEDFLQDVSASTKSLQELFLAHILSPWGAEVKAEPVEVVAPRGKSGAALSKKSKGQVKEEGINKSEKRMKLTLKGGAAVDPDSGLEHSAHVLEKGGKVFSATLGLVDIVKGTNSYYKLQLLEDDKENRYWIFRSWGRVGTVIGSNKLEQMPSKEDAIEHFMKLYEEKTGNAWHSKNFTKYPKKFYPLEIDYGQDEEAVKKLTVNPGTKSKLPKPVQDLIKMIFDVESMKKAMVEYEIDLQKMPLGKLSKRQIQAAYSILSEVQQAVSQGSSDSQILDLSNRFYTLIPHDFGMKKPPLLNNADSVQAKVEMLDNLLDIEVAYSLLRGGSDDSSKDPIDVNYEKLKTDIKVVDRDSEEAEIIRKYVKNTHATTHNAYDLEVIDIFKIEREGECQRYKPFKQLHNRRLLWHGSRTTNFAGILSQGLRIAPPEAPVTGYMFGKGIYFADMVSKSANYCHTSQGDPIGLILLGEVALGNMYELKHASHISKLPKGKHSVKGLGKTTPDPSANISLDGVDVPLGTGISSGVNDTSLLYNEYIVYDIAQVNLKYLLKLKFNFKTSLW

Consider `Cc1nc2c(Cl)cccc2c(=O)[nH]1`, for which it took 2.65 µM to reach half-maximal inhibition in test [1] (IC50).

On to `Cc1nc2c(N)cccc2c(=O)[nH]1`, for which the concentration for half-maximal inhibition (IC50) (as a rule, the concentration at which inhibition is half-maximal) is 0.4 µM in test [1], greater than 500 µM in the test with MEF [2] and 49 µM in the test with MEF [3]. Besides, in the test on MEF [4], the “Ratio IC50” value is greater than 10.

With `Nc1ccc2nc[nH]c(=O)c2c1`, the inhibition (in general, the relative decrease from the control value, in per cent) in test [5] stood at 40%.

Molecule `Cc1cc(C)c2nc[nH]c(=O)c2c1` returned an IC50 in test [1] of 1.39 µM. Also, the Ratio IC50 in test [6] is 4.

As to `O=[N+]([O-])c1ccc2ncnc(O)c2c1`, the inhibition in test [5] stood at 40%.

`Cc1cccc2c(=O)[nH]cnc12` displayed an IC50 in test [1] of 1.32 µM. Besides, in test [6], the Ratio IC50 came to 4.

As to `Cc1nc(O)c2cccc(C)c2n1`, the IC50 in test [1] amounted to 0.49 µM; with MEF [2], 177 µM; with MEF [3], 15.1 µM. Moreover, the “Ratio IC50” value in the test on MEF [4] was 12.

`Cc1cc(C)c2nc(C)[nH]c(=O)c2c1` returned an IC50 in test [1] of 13.2 µM.

Regarding `O=c1[nH]cnc2cccc(F)c12`, it took 7.04 µM to reach half-maximal inhibition in test [1] (IC50).

In test [5], `Cc1cccc2nc[nH]c(=O)c12` yielded an inhibition of 40%.

Consider `Cc1nc2cccc(F)c2c(=O)[nH]1`, for which the IC50 in test [1] amounted to 1.97 µM.

In turn, `Cc1nc2cccc(Cl)c2c(=O)[nH]1` returned an IC50 in test [1] of 1.18 µM.

`O=c1[nH]cnc2cc([N+](=O)[O-])ccc12`: the inhibition in test [5] is less than 40%.

In test [1], `O=c1[nH]cnc2cccc(Cl)c12` returned an IC50 of 3.19 µM.

The molecule `O=c1[nH]cnc2ccc(F)cc12` registered an IC50 in test [1] of 9.01 µM.

As to `O=c1[nH]cnc2c(Cl)cccc12`, the IC50 in test [1] came to 5.65 µM.

`Cc1ccc2nc[nH]c(=O)c2c1` returned a 50% inhibitory concentration (IC50) in test [1] of 25 µM. The molecule also returned an inhibition in test [5] of 40%.

In test [1], `O=c1[nH]cnc2ccc([N+](=O)[O-])cc12` registered an IC50 of 25 µM.

For `CN(C)CC(=O)Nc1ccc2[nH]c(=O)c3ccccc3c2c1` [PJ34], the IC50 stood at 19.8 µM with MEF [2] and 13.2 µM in the test with MEF [3].

`Oc1ncnc2cc(Cl)ccc12` returned an inhibition in test [5] of less than 40%.

Take `O=c1[nH]cnc2ccc(I)cc12`: the inhibition in test [5] was 40%.

In turn, `O=c1[nH]cnc2ccc(O)cc12` returned an inhibition in test [5] of 40%.

In the case of `O=c1[nH]cnc2cc(C(F)(F)F)ccc12`, inhibition in test [1] was half-maximal at 7.5 µM (IC50).

In test [1], `O=c1[nH]cnc2ccc(Cl)cc12` displayed an IC50 of 11 µM.

The molecule `Nc1ccc2c(=O)[nH]cnc2c1` had an inhibition in test [5] of less than 40%.

Turning to `Cc1nc2cccc(C)c2c(=O)[nH]1`, 5.31 µM corresponded to half-maximal inhibition in test [1] (IC50).

The molecule `COc1cc2nc[nH]c(=O)c2cc1OC` came in with an inhibition in test [5] of less than 40%.

In test [5], `O=c1[nH]cnc2cc(F)c(F)cc12` registered an inhibition of less than 40%.

`Nc1cccc2c(=O)[nH]cnc12`: the IC50 in test [1] was 0.76 µM; in the test with MEF [2], greater than 600 µM; in the test with MEF [3], greater than 600 µM.

With `O=c1[nH]cnc2cc(F)ccc12`, the inhibition in test [5] is less than 40%.

`O=c1[nH]cnc2c(F)cccc12`: in test [1], the IC50 was determined as 18.8 µM.

Regarding `O=[N+]([O-])c1cccc2c(O)ncnc12`, the inhibition in test [5] was less than 40%.

As to `Cc1ccc2c(=O)[nH]cnc2c1`, the inhibition in test [5] was 40%.

As to `O=c1[nH]cnc2c(C(F)(F)F)cccc12`, in test [5], the inhibition stood at 40%.
